Experimental data reported in ChEMBL document CHEMBL2016479, “Lead optimization of 4,4-biaryl piperidine amides as γ-secretase inhibitors” (Bioorg Med Chem Lett, 2012).
Converted amounts (≈) assume the structure as drawn.

Key:
[1] = Drug uptake in APP-YAC transgenic mouse plasma at 100 mg/kg, po after 6 hrs; format: ADME, organism-based; design: dose 100 mg/kg, route oral
[2] = system: Mus musculus; test: Anti-Alzheimer's disease activity in APP-YAC transgenic mouse model assessed as reduction in amyloid beta 42 production at 100 mg/kg, po; format: functional
[3] = Solubility of the compound; format: physicochemical
[4] = Plasma clearance in Sprague-Dawley rat at 0.05 mg/kg, iv; format: ADME, organism-based; design: dose 0.05 mg/kg, route intravenous
[5] = Half life in Sprague-Dawley rat at 0.05 mg/kg, iv; format: ADME, organism-based; design: dose 0.05 mg/kg, route intravenous; conditions: in vivo
[6] = Lipophilicity, log D of the compound; format: physicochemical; conditions: octanol/water
[7] = target: Gamma-secretase; test: Inhibition of gamma-secretase in human SH-SY5Y cells co-expressing APP C-terminal fragment SPA4CT assessed as inhibition of amyloid beta 42 production by electrochemiluminescent assay; format: cell-based
[8] = Volume of distribution at steady state in Sprague-Dawley rat at 0.05 mg/kg, iv; format: ADME, organism-based; design: dose 0.05 mg/kg, route intravenous; conditions: in vivo, read-out: Vdss
[9] = target: Gamma-secretase; test: Inhibition of gamma-secretase in human SH-SY5Y cells co-expressing APP C-terminal fragment SPA4CT assessed as inhibition of amyloid beta 40 production by electrochemiluminescent assay; format: cell-based
[10] = Apparent permeability of the compound; format: ADME; conditions: not told
[11] = (§1) AUC in Sprague-Dawley rat at 0.05 mg/kg, iv; format: ADME, organism-based, Plasma; design: dose 0.05 mg/kg, route intravenous; conditions: Sprague-Dawley, plasma
[12] = Ratio of permeability from apical to basolateral side over basolateral to apical side in […] expressing human MDR1; format: ADME, cell-based
[13] = Drug uptake in APP-YAC transgenic mouse brain at 100 mg/kg, po after 6 hrs; format: ADME, organism-based; design: dose 100 mg/kg, route oral; conditions: read-out: Drug uptake
[14] = system: Rattus norvegicus; test: as §1; format: ADME, organism-based, Plasma; design: dose 0.05 mg/kg, route intravenous; conditions: in vivo

Row | Structure (SMILES) | clearance [4] [mL/min/kg] | IC50 [7] [nM] | IC50 [9] [nM] | further results
1 | Cn1cc(C(=O)N2CCC(c3cc(F)ccc3F)(S(=O)(=O)c3ccc(Cl)cc3)CC2)c(C(F)(F)F)n1 | > 84 | 120 | 160 | concentration at 6 h [1]: 1780 nM; inhibition in vivo at 100 mg/kg [2]: 17%; solubility [3]: 30.6 µM (≈ 16.8 µg/mL); half-life [5]: 2.05 h; logD [6]: 3.36; Vd [8]: 11.3 L; Papp [10]: 30.7 ×10⁻⁶ cm/s; AUC [11]: 0.23 µM·h; Ratio [12]: 1.8; concentration at 6 h [13]: 520 nM
2 | Cn1nc(C(F)(F)F)c(C(=O)N2CCC(c3cc(F)ccc3F)(S(=O)(=O)c3ccc(Cl)cc3)CC2)c1Cl | 79 | 190 | 230 | –
3 | COc1ccc2c(C(=O)N3CCC(c4cc(F)ccc4F)(S(=O)(=O)c4ccc(Cl)cc4)CC3)c[nH]c2c1 | > 84 | 80 | 270 | –
4 | COc1ccc2c(C(=O)N3CCC(c4cc(F)ccc4F)(S(=O)(=O)c4ccc(Cl)cc4)CC3)cn(C)c2c1 | > 84 | 70 | 90 | –
5 | Cn1ccnc1C(=O)N1CCC(c2cc(F)ccc2F)(S(=O)(=O)c2ccc(Cl)cc2)CC1 | > 84 | 160 | 200 | –
6 | O=C(c1ncccc1C(F)(F)F)N1CCC(c2cc(F)ccc2F)(S(=O)(=O)c2ccc(Cl)cc2)CC1 | 80.5 | 50 | 70 | –
7 | O=C(c1cnccc1C(F)(F)F)N1CCC(c2cc(F)ccc2F)(S(=O)(=O)c2ccc(Cl)cc2)CC1 | > 84 | 110 | 130 | –
8 | O=C(c1cnc(Cl)cc1C(F)(F)F)N1CCC(c2cc(F)ccc2F)(S(=O)(=O)c2ccc(Cl)cc2)CC1 | – | 970 | 1090 | –
9 | O=C(c1cnc(Cl)nc1C(F)(F)F)N1CCC(c2cc(F)ccc2F)(S(=O)(=O)c2ccc(Cl)cc2)CC1 | – | > 10000 | > 10000 | –
10 | O=C(c1ccccc1C(F)(F)F)N1CCC(c2cc(F)ccc2F)(S(=O)(=O)c2ccc(Cl)cc2)CC1 | 31.9 | 210 | 260 | –
11 | O=C(CCC(F)(F)F)N1CCC(c2cc(F)ccc2F)(S(=O)(=O)c2ccc(Cl)cc2)CC1 | – | 420 | 400 | –
12 | O=C(CC(F)(F)F)N1CCC(c2cc(F)ccc2F)(S(=O)(=O)c2ccc(Cl)cc2)CC1 | > 84 | 90 | 80 | –
13 | O=C(N1CCC(c2cc(F)ccc2F)(S(=O)(=O)c2ccc(Cl)cc2)CC1)C1(C(F)(F)F)CCCCC1 | – | 180 | 220 | –
14 | O=C(N1CCC(c2cc(F)ccc2F)(S(=O)(=O)c2ccc(Cl)cc2)CC1)C1(C(F)(F)F)CCCC1 | > 84 | 110 | 140 | –
15 | O=C(N1CCC(c2cc(F)ccc2F)(S(=O)(=O)c2ccc(Cl)cc2)CC1)C1(C(F)(F)F)CCC1 | 46.2 | 60 | 70 | –
16 | O=C(N1CCC(c2cc(F)ccc2F)(S(=O)(=O)c2ccc(Cl)cc2)CC1)C1(C(F)(F)F)CC1 | – | 30 | 30 | concentration at 6 h [1]: 650 nM; inhibition in vivo at 100 mg/kg [2]: 37%; solubility [3]: 26.8 µM (≈ 13.6 µg/mL); half-life [5]: 3.5 h; logD [6]: 3.76; Vd [8]: 3.1 L; Papp [10]: 37.3 ×10⁻⁶ cm/s; AUC [14]: 1.19 µM·h; Ratio [12]: 0.9; concentration at 6 h [13]: 1180 nM
17 | COC(=O)C1(C(=O)N2CCC(c3cc(F)ccc3F)(S(=O)(=O)c3ccc(Cl)cc3)CC2)CC1 | > 84 | 50 | 100 | –
18 | CC1(C(=O)N2CCC(c3cc(F)ccc3F)(S(=O)(=O)c3ccc(Cl)cc3)CC2)CC1 | > 84 | 50 | 70 | –
19 | CC(C)(O)C(=O)N1CCC(c2cc(F)ccc2F)(S(=O)(=O)c2ccc(Cl)cc2)CC1 | 75.1 | 120 | 130 | –
20 | CC1(C(=O)N2CCC(c3cc(F)ccc3F)(S(=O)(=O)c3ccc(Cl)cc3)CC2)COC1 | – | 640 | 880 | –
21 | O=C(N1CC[C@](c2cc(F)ccc2F)(S(=O)(=O)c2ccc(Cl)cc2)[C@@H](O)C1)C1(C(F)(F)F)CC1 (racemic) | – | 190 | 250 | –
22 | O=C(N1CC[C@](c2cc(F)ccc2F)(S(=O)(=O)c2ccc(Cl)cc2)[C@H](O)C1)C1(C(F)(F)F)CC1 (racemic) | – | 40 | 40 | concentration at 6 h [1]: 11100 nM; inhibition in vivo at 100 mg/kg [2]: 76%; solubility [3]: 174 µM (≈ 91.1 µg/mL); half-life [5]: 1.6 h; logD [6]: 3.27; Vd [8]: 1.65 L; Papp [10]: 31.1 ×10⁻⁶ cm/s; AUC [11]: 3.51 µM·h; Ratio [12]: 1.2; concentration at 6 h [13]: 7060 nM
23 | O=C(N1CC[C@](c2cc(F)ccc2F)(S(=O)(=O)c2ccc(Cl)cc2)[C@@H](O)C1)C1(C(F)(F)F)CC1 (single isomer, unassigned; 11b) | – | 90 | 90 | –
24 | O=C(N1CC[C@](c2cc(F)ccc2F)(S(=O)(=O)c2ccc(Cl)cc2)[C@@H](O)C1)C1(C(F)(F)F)CC1 (single isomer, unassigned; 11c) | – | 2390 | 1790 | –
25 | O=C(N1CC[C@](c2cc(F)ccc2F)(S(=O)(=O)c2ccc(Cl)cc2)[C@H](O)C1)C1(C(F)(F)F)CC1 (single isomer, unassigned; 12b) | – | 80 | 110 | –
26 | O=C(N1CC[C@](c2cc(F)ccc2F)(S(=O)(=O)c2ccc(Cl)cc2)[C@H](O)C1)C1(C(F)(F)F)CC1 (single isomer, unassigned; 12c) | 5.7 | 10 | 10 | –
